Here are results for one compound from ChEMBL document CHEMBL2406977, “The discovery of PLK4 inhibitors: (E)-3-((1H-Indazol-6-yl)methylene)indolin-2-ones as novel antiproliferative agents” (J Med Chem, 2013).

For assay [1], the target named is T1, Cytochrome P450 1A2 (Homo sapiens, UniProt P05177).
T1 sequence (P05177 whole entry): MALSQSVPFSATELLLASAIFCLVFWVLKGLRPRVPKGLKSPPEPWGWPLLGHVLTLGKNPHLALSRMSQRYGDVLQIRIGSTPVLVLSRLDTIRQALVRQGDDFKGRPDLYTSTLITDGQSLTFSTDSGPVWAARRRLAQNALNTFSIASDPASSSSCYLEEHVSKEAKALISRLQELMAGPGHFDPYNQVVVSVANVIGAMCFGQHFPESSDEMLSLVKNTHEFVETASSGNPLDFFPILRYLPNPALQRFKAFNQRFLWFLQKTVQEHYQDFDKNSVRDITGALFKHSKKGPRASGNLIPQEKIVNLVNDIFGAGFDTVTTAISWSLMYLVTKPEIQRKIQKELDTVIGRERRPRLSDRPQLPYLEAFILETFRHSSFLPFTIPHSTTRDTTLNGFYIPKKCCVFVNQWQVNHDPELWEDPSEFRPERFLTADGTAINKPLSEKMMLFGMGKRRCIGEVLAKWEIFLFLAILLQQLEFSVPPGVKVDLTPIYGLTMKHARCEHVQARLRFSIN
Nature of the assay: Inhibition of CYP1A2 (unknown origin) using CEC as substrate after 15 mins by fluorescence assay. The format is ADME.

The target of assay [2] is Vascular endothelial growth factor receptor 2 (Homo sapiens, UniProt P35968). Nature of the assay: Inhibition of KDR (unknown origin) by FRET-based homogeneous assay.
The target of assay [3] is Serine/threonine-protein kinase PLK1 (Homo sapiens, UniProt P53350). Nature of the assay: Inhibition of PLK1 (unknown origin) by FRET-based homogeneous assay.
The target in assay [4] is T2, Receptor-type tyrosine-protein kinase FLT3 (Homo sapiens, UniProt P36888).
T2 sequence (P36888 whole entry): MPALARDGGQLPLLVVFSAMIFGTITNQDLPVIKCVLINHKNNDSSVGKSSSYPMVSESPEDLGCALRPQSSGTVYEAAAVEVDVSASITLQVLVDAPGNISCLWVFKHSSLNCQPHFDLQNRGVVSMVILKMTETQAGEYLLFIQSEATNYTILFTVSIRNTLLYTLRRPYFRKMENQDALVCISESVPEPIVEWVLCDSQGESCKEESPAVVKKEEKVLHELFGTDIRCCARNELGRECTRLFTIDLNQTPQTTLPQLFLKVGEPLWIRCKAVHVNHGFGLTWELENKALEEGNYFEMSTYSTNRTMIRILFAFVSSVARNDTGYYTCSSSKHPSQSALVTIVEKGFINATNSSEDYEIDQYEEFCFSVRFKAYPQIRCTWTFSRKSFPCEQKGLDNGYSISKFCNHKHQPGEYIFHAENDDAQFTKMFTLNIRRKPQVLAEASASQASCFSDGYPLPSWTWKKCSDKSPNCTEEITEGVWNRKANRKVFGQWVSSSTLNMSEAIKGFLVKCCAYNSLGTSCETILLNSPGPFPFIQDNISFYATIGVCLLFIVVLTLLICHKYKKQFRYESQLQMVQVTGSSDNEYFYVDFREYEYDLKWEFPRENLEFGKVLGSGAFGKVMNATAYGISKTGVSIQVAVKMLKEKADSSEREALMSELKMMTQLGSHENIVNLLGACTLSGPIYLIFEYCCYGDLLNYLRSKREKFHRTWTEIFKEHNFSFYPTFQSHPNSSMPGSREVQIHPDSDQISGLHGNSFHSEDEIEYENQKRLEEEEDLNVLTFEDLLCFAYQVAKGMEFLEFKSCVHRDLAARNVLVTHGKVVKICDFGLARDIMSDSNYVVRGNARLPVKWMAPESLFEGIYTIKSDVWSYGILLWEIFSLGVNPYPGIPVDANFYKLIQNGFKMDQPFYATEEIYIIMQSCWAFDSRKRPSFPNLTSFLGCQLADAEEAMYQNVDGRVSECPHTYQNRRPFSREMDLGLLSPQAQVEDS
Nature of the assay: Inhibition of FLT3 (unknown origin) by FRET-based homogeneous assay.

Assay [5] deals with MDA-MB-468. Description: Antitumor activity against human MDA-MB-468 cells xenografted in CB-17 SCID mouse assessed as reduction in tumor size at 25 mg/kg, ip qd for 21 days relative to control. The format is functional. The conditions noted are these: MDA-MB-468, ip, 504 h, route intraperitoneal, read-out: TGI. (A xenograft is tissue or cells of one species grown in another, often human tumour cells in immunodeficient mice.)

Serine/threonine-protein kinase PLK1, sequence (P53350 whole entry): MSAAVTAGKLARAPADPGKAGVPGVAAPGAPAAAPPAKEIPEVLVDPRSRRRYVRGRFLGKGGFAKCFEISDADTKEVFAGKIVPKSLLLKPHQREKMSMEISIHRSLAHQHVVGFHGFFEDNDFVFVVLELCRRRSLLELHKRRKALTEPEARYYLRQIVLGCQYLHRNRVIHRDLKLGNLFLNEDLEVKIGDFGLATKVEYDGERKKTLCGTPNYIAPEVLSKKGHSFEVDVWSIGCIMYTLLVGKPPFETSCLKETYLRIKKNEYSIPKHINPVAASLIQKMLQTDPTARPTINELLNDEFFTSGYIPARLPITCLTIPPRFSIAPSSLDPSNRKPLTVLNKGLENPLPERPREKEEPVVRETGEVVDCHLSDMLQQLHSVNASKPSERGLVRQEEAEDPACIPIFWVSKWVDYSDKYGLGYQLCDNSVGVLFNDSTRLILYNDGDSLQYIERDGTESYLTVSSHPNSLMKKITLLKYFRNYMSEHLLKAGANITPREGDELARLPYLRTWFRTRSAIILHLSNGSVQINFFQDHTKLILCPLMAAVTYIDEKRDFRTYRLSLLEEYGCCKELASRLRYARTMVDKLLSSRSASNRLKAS
Vascular endothelial growth factor receptor 2, sequence (P35968 whole entry): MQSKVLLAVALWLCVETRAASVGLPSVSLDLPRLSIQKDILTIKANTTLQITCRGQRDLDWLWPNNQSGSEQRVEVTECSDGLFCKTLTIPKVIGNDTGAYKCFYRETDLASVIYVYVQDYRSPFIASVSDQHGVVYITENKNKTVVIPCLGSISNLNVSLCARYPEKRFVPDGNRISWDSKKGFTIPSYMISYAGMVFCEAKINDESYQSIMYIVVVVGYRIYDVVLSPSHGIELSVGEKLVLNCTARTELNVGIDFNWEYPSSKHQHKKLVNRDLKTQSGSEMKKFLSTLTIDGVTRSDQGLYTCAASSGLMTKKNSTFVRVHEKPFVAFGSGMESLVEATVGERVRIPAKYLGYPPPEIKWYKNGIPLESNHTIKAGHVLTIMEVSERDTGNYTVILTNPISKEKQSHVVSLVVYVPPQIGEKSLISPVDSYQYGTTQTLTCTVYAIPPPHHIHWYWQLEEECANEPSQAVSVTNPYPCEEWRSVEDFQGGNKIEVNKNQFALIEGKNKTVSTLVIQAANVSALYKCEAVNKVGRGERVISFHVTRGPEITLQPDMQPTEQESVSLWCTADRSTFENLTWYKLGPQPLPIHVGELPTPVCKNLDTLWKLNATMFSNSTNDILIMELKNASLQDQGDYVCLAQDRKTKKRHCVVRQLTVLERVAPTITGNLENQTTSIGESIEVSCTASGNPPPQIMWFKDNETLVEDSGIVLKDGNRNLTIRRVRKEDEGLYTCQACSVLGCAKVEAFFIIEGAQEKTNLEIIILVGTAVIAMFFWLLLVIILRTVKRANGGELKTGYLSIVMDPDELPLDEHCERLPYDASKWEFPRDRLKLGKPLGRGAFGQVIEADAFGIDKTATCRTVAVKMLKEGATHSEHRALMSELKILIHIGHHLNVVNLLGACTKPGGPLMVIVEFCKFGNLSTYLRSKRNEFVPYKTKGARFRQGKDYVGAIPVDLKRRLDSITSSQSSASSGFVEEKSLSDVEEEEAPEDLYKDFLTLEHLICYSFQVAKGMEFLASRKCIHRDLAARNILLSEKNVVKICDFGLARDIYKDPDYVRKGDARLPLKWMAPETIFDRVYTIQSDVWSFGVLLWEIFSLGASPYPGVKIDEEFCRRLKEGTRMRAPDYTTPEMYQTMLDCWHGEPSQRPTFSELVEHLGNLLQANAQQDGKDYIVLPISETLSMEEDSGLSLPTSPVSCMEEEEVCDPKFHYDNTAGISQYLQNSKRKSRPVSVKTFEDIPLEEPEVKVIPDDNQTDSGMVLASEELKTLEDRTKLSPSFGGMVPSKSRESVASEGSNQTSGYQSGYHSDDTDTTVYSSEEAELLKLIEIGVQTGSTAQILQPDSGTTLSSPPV

As usually defined, the IC50 is the concentration that inhibits the measured activity by half. Higher therefore signals weaker potency. As for `COc1ccc2c(c1)/C(=C\c1ccc3c(/C=C/c4ccc(N5CCN(C)CC5)nc4)n[nH]c3c1)C(=O)N2`, the IC50 in assay [1] is over 10000 nM; in assay [2], 480 nM; in assay [3], over 10000 nM; in assay [4], 180 nM. Also, the inhibition in vivo at 25 mg/kg in assay [5] was determined as 70%.
